According to patent publication US4544512A, “Tridecyloxy- or tetradecyloxy-propane derivatives” (Takeda Chemical Industries, Ltd., priority 1980, dated 1985):
Converted amounts (≈) assume the structure as drawn. Where two headings read alike, the source gives them in different places.

Columns and labels:
[1] = test system: Gibberella fujikuroi; assay: Antifungal activity, serial dilution method (MIC); type: cell-based; settings: Fusarium fujikuroi, read-out: MIC Gibberella fujikuroi (rice Bakanae-disease)
[2] = test system: Leptosphaeria salvinii; assay: Antifungal activity, serial dilution method (MIC); type: cell-based; settings: Nakataea oryzae, read-out: MIC Leptosphaeria salvinii (rice stem rot)
[3] = test system: Cochliobolus miyabeanus; assay: Antifungal activity, serial dilution method (MIC); type: cell-based; settings: Bipolaris oryzae, read-out: MIC Cochliobolus miyabeanus (rice Helminthosporium leaf spot)
[4] = test system: Pyricularia oryzae; assay: microbe, parasite or virus in culture; type: cell-based; settings: read-out: MIC Pyricularia oryzae (rice blast)
[5] = test system: Colletotrichum lagenarium; assay: Antifungal activity, serial dilution method (MIC); type: cell-based; settings: Colletotrichum orbiculare, read-out: MIC Colletotrichum lagenarium (cucumber anthracnose)
[6] = test system: Alternaria solani; assay: Antifungal activity, serial dilution method (MIC); type: cell-based; settings: 1% glucose-bouillon agar medium, read-out: MIC Alternaria solani (potato early blight)
[7] = test system: Botrytis cinerea; assay: Antifungal activity, serial dilution method (MIC); type: cell-based; settings: read-out: MIC Botrytis cinerea (gray mold)
[8] = test system: Trichophyton mentagrophytes IFO (DT-66); assay: Antitrichophyton activity, serial dilution method (MIC); type: cell-based; settings: Sabouraud's agar medium
Procedure: (§1) Referring to the antitrichophyton activity shown in Table 7, MIC values of tested compounds were determined by the serial dilution method using Sabouraud's agar medium.

[9] = test system: Trichophyton rubrum IFO 5467 (DT-63); assay: as above; type: cell-based; settings: IFO5467, Sabouraud's agar medium
Procedure: as §1

[10] = test system: spontaneous myeloid leukemia M1 cells; assay: Growth inhibition of cultured spontaneous mouse myeloid leukemia M1 cells (GD50); type: cell-based, mice (SL-strain); settings: for IC50: Mus musculus, 72 h, 3 days, 37° C., Trypan Blue dye-exclusion, M1 Resistant clone; for B/A (GD50 normal bone marrow cells / GD50 M1 cells): ratio of GD50 values, 4320 min
Procedure: (§2) BALB/c mice at a concentration of 1 μg/ml (Cancer Res. 39, pp. 4681-4686 (1979)). The present inventors conducted comparative tests between octadecyl phospholipid and the corresponding tridecyl compound as well as tetradecyl compound on the activity (GD50) to inhibit the multiplication of spontaneous myeloid leukemia cells M1 in mice. […] The effect on the corresponding normal cells, i.e. on the myeloid cells of normal mice, is far weaker in the tetradecyl compounds. Therefore, in view of the balance of the inhibiting activity against multiplication of tumor cells and the safety (Chemotherapy Coefficient), it can be said that tetradecyl phospholipid is preferable to octadecyl phospholipid.
(§3) By employing Eagle's minimum essential medium supplemented with 10% heat-inactivated calf serum, incubation of spontaneous myeloid leukemia M1 cells (Resistant clone) harvested from mice (SL-strain) and normal bone marrow cells of mice of the same strain was conducted, in the presence or absence of the test compound in various concentrations, in a humified CO2 incubator at 37° C. for 3 days. The number of viable cells was determined by the Trypan Blue Stain dye-exclusion test. The concentration of the tested compound for 50% inhibiting the proliferation of M1 cells or normal bone marrow cells (GD50) was determined, and the result was shown in Table 1.

[11] = test system: normal bone marrow cells; assay: Growth inhibition of normal mouse bone marrow cells (GD50); type: cell-based, mice (SL-strain); settings: Bone marrow cell, 72 h, 3 days, 37° C., Trypan Blue dye-exclusion, read-out: GD50 Normal mouse bone marrow cells (B)
Procedure: as §2, §3

[12] = test system: mouse myeloid leukemia M1 cells; assay: Induced differentiation of mouse myeloid leukemia M1 cells; type: cell-based; settings: at optimal dose: C00019 1 μg/ml, drawing 20 2 μg/ml; for Phagocytic cells: None 2.0 %; for Morphological change: None 2.1 %; for Lysozyme activity: None 2.2
Procedure: By employing soft-agar medium having similar components to those in Test Example 1, incubation of myeloid leukemia (M1) cells harvested from mice was conducted in the presence of the test compound in its optimal concentration. Observation on various biological and biochemical properties caused by induced differentiation was conducted. In Table 2 are given the results obtained by determination of the degree of the induced differentiation employing, as the indexes, among those properties, morphological changes (matured granulocytes, matured macrophages, others caused by changes in appearance of cells at the stage of differentiation),phagocytic activity (plastic small pieces.phagocytosis) and lysozyme activity. Additionally stating, these morphological changes were not observed under the conditions devoid of the drugs.

[13] = test system: human promyelocytic leukemia HL-60 cells; assay: Induced differentiation of human promyelocytic leukemia HL-60 cells; type: cell-based; settings: six day incubation; optimal dose: C00021 1 μg/ml, drawing 22 4 μg/ml
Procedure: By employing soft-agar medium, incubation of human promyelocytic leukemia HL-60 cells was conducted in the presence of a drug at its optimal concentration. It was observed that the leukemia HL-60 cells were gradually changing into mature myeloid cells or phagocytic cells as the induced differentiation proceeded. After six day incubation, number of these cells was counted, and the respective ratios (%) relative to the total number of these cells were calculated, as shown in Table 3. Additionally stating, these changes were not observed under the conditions devoid of the drugs.

[14] = 1% glucose-bouillon agar medium

Compound: CCCCCCCCCCCCOCC(COP(=O)([O-])OCC[N+](C)(C)C)OC (stereo not drawn) [Compound (A) R = C12 H25, reference compound]
- MIC [1, 14]: > 100 µg/mL
- MIC [2, 14]: 25 µg/mL (≈ 56.9 µM)
- MIC [3]: > 100 µg/mL
- MIC [4]: 25 µg/mL (≈ 56.9 µM)
- MIC [5, 14]: 12.5 µg/mL (≈ 28.4 µM)
- MIC [6]: 50 µg/mL (≈ 114 µM)
- MIC [7, 14]: 50 µg/mL (≈ 114 µM)

Compound: CCCCCCCCCCCCCOCC(COP(=O)([O-])OCC[N+](C)(C)C)OC (stereo not drawn) [Compound (A) R = C13 H27]
- MIC [1, 14]: > 100 µg/mL
- MIC [2, 14]: 6.25 µg/mL (≈ 13.8 µM)
- MIC [3]: > 100 µg/mL
- MIC [4]: 12.5 µg/mL (≈ 27.6 µM)
- MIC [5, 14]: 6.25 µg/mL (≈ 13.8 µM)
- MIC [6]: 50 µg/mL (≈ 110 µM)
- MIC [7]: 12.5 µg/mL (≈ 27.6 µM)

Compound: CCCCCCCCCCCCCCOCC(COP(=O)([O-])OCC[N+](C)(C)C)OC (stereo not drawn) [Compound (A) R = C14 H29]
- MIC [1, 14]: 25 µg/mL (≈ 53.5 µM)
- MIC [2]: 3.12 µg/mL (≈ 6.67 µM)
- MIC [3]: 12.5 µg/mL (≈ 26.7 µM)
- MIC [4]: 3.12 µg/mL (≈ 6.67 µM)
- MIC [5, 14]: 25 µg/mL (≈ 53.5 µM)
- MIC [6]: 100 µg/mL (≈ 214 µM)
- MIC [7, 14]: 6.25 µg/mL (≈ 13.4 µM)

Compound: CCCCCCCCCCCCCCCCCCOCC(COP(=O)([O-])OCC[N+](C)(C)C)OC (stereo not drawn) [Compound (A) R = C18 H37, reference compound]
- MIC [1, 14]: > 100 µg/mL
- MIC [2, 14]: 12.5 µg/mL (≈ 23.9 µM)
- MIC [3]: > 100 µg/mL
- MIC [4]: 6.25 µg/mL (≈ 11.9 µM)
- MIC [5, 14]: > 100 µg/mL
- MIC [6]: > 100 µg/mL
- MIC [7, 14]: 25 µg/mL (≈ 47.7 µM)

Compound: CCCCCCCCCCCCOCCCOP(=O)([O-])OCC[N+](C)(C)C [Compound (B) R = C12 H25, reference compound]
- MIC [1, 14]: 100 µg/mL (≈ 244 µM)
- MIC [2, 14]: 25 µg/mL (≈ 61 µM)
- MIC [3]: 6.25 µg/mL (≈ 15.3 µM)
- MIC [4]: 12.5 µg/mL (≈ 30.5 µM)
- MIC [5]: 6.25 µg/mL (≈ 15.3 µM)
- MIC [6]: 50 µg/mL (≈ 122 µM)
- MIC [7, 14]: 25 µg/mL (≈ 61 µM)

Compound: CCCCCCCCCCCCCOCCCOP(=O)([O-])OCC[N+](C)(C)C [Compound (B) R = C13 H27]
- MIC [1, 14]: 25 µg/mL (≈ 59 µM)
- MIC [2, 14]: 12.5 µg/mL (≈ 29.5 µM)
- MIC [3]: 6.25 µg/mL (≈ 14.8 µM)
- MIC [4]: 6.25 µg/mL (≈ 14.8 µM)
- MIC [5, 14]: 1.56 µg/mL (≈ 3.68 µM)
- MIC [6]: 25 µg/mL (≈ 59 µM)
- MIC [7]: 6.25 µg/mL (≈ 14.8 µM)

Compound: CCCCCCCCCCCCCCOCCCOP(=O)([O-])OCC[N+](C)(C)C [Compound (B) R = C14 H29]
- MIC [1]: 12.5 µg/mL (≈ 28.6 µM)
- MIC [2]: 6.25 µg/mL (≈ 14.3 µM)
- MIC [3]: 12.5 µg/mL (≈ 28.6 µM)
- MIC [4]: 6.25 µg/mL (≈ 14.3 µM)
- MIC [5]: 6.25 µg/mL (≈ 14.3 µM)
- MIC [6]: 50 µg/mL (≈ 114 µM)
- MIC [7]: 6.25 µg/mL (≈ 14.3 µM)

Compound: CCCCCCCCCCCCCCCCCCOCCCOP(=O)([O-])OCC[N+](C)(C)C [Compound (B) R = C18 H37, reference compound]
- MIC [1, 14]: > 100 µg/mL
- MIC [2, 14]: 50 µg/mL (≈ 101 µM)
- MIC [3]: > 100 µg/mL
- MIC [4]: 12.5 µg/mL (≈ 25.3 µM)
- MIC [5, 14]: > 100 µg/mL
- MIC [6]: > 100 µg/mL
- MIC [7, 14]: 25 µg/mL (≈ 50.6 µM)

Compound: CCCCCCCCCCCCOCC(COP(=O)([O-])OCC[N+](C)(C)C)OC (stereo not drawn) [R = C12 H25, A = drawing 32, reference compound]
- MIC [8]: 25 µg/mL (≈ 56.9 µM)
- MIC [9]: 6.25 µg/mL (≈ 14.2 µM)

Compound: CCCCCCCCCCCCCOCC(COP(=O)([O-])OCC[N+](C)(C)C)OC (stereo not drawn) [R = C13 H27, A = drawing 33]
- MIC [8]: 6.25 µg/mL (≈ 13.8 µM)
- MIC [9]: 3.12 µg/mL (≈ 6.88 µM)

Compound: CCCCCCCCCCCCCOCC(COP(=O)([O-])OCC[n+]1ccccc1)OC (stereo not drawn) [R = C13 H27, A = drawing 34]
- MIC [8]: 12.5 µg/mL (≈ 26.4 µM)
- MIC [9]: 3.12 µg/mL (≈ 6.59 µM)

Compound: CCCCCCCCCCCCCCOCC(COP(=O)([O-])OCC[N+](C)(C)C)OC (stereo not drawn) [R = C14 H29, A = drawing 35]
- MIC [8]: 3.12 µg/mL (≈ 6.67 µM)
- MIC [9]: 1.56 µg/mL (≈ 3.34 µM)

Compound: CCCCCCCCCCCCCCOCC(COP(=O)([O-])OCC[n+]1ccccc1)OC (stereo not drawn) [R = C14 H29, A = drawing 36]
- MIC [8]: 3.12 µg/mL (≈ 6.4 µM)
- MIC [9]: 1.56 µg/mL (≈ 3.2 µM)

Compound: CCCCCCCCCCCCCCCCCCOCC(COP(=O)([O-])OCC[N+](C)(C)C)OC (stereo not drawn) [drawing 17, reference compound]
- IC50 [10]: 0.6 µg/mL (≈ 1.15 µM)
- B/A (GD50 normal bone marrow cells / GD50 M1 cells) [10]: 25
- IC50 [11]: 15 µg/mL (≈ 28.6 µM)

Compound: CCCCCCCCCCCCCCOCC(COP(=O)([O-])OCC[N+](C)(C)C)OC (stereo not drawn) [drawing 18]
- IC50 [10]: 1.2 µg/mL (≈ 2.57 µM)
- B/A (GD50 normal bone marrow cells / GD50 M1 cells) [10]: 33
- IC50 [11]: 40 µg/mL (≈ 85.5 µM)

Compound: CCCCCCCCCCCCCCCCCCOCC(COP(=O)([O-])OCC[N+](C)(C)C)OC (stereo not drawn) [drawing 19, reference compound]
- Phagocytic cells [12]: 13.4%
- Morphological change [12]: 34.7%
- Lysozyme activity [12]: 31.1 units/mg protein

Compound: CCCCCCCCCCCCCCOCC(COP(=O)([O-])OCC[N+](C)(C)C)OC (stereo not drawn) [drawing 20]
- Phagocytic cells [12]: 25.9%
- Morphological change [12]: 53.4%
- Lysozyme activity [12]: 80.1 units/mg protein

Compound: CCCCCCCCCCCCCCCCCCOCC(COP(=O)([O-])OCC[N+](C)(C)C)OC (stereo not drawn) [drawing 21, reference compound]
- Mature myeloid cells [13]: 43.0%
- NBT (nitro blue tetrazolium) reduction [13]: 47.8%
- Phagocytic cells [13]: 39.8%

Compound: CCCCCCCCCCCCCCOCC(COP(=O)([O-])OCC[N+](C)(C)C)OC (stereo not drawn) [drawing 22]
- Mature myeloid cells [13]: 91.3%
- NBT (nitro blue tetrazolium) reduction [13]: 87.0%
- Phagocytic cells [13]: 68.2%
